Experimental data: patent US10821117B2, “Estrogen therapy for brain gray matter atrophy and associated disability” (The Regents of the University of California, priority 2014, dated 2020)

How the values were obtained:
[1] = system: relapsing remitting multiple sclerosis patients; test: Expanded Disability Status Scale (EDSS) change and disability progression; type: in vivo, human; conditions: for Proportion of pts with progression at 24 months % (95% CI): EDSS progression sustained at least 6 months, Kaplan-Meier; for EDSS change at 24 months (median): within group comparison vs baseline, negative values indicate improvement
Protocol: Standardized neurologic assessments, including an EDSS assessment, were performed at months 0, 3, 6, 12, 18 and 24, and at the time of a suspected relapse (as an additional unscheduled visit). EDSS assessments were performed by physicians who were trained either by in-person training or online (www.Neurostatus.net). MRI scans were obtained at screening and at months 0, 3, 6, 12 and 24. Subjects were seen or contacted every 3 months for compliance assessments and for dispensing medications.
Secondary efficacy end points included the proportion of subjects with a relapse over all 24 months, a change in PASAT cognitive testing, a sustained improvement in PASAT cognitive testing (as defined by an increase of at least 3 points sustained over at least 6 months), a change in EDSS scores from baseline, disability progression (as defined by an increase in EDSS of at least 1.0 point in subjects with a baseline score of 1.0 or higher, or by an increase of at least a 1.5 points in subjects with a baseline score of 0, each sustained for at least 6 months). Tertiary end points included gray matter atrophy on MRI.
For the time to first relapse analysis, Kaplan Meier curves and log-rank test were used to estimate and compare the relapse free probabilities of the two treatment groups. Cox proportional hazards model was used to compare the time to relapse free probabilities between two groups adjusting for covariates. The fixed effects include treatment groups (Estriol+GA vs Placebo+GA), baseline lesion number, age and baseline EDSS score. The random effect of subject is included in the model to account for within subject correlation.
Linear mixed effects model was carried out to compare the percent change in whole gray matter and cortical gray matter between treatment groups. For the exploratory endpoints of EDSS, PASAT, and brain volume measures, linear mixed effects model was used to compare treatment groups at 12 and 24 months. Linear mixed effects model was carried out to evaluate the association between PASAT change and percent brain volume change.

[2] = system: relapsing remitting multiple sclerosis patients; test: Voxel-based morphometry (VBM) of gray matter loss; type: in vivo, human; conditions: at 12 months; FDR P≤0.05; FIG. 9
Protocol: Voxel-based morphometry (VBM) analyses were performed as described by Kurth et al. (Neuroimage Clin. 4:454 (2014)). All subjects included in the VBM cohort were required to have at least reached month 12 of the study, and all images had to pass quality control before and after image preprocessing to be included in the VBM cohort. Using this criteria, the VBM cohort consisted of Ill subjects (62 in the estriol+GA, and 49 in the placebo+GA group) from 13 sites for month 12 analyses, and 86 of these subjects (45 in the estriol+GA, and 41 in the placebo+GA group) for 24 month analyses.
Brain images were preprocessed utilizing SPM8 and the VBM8 toolbox. White matter lesions were in-painted to minimize their impact based on manual delineations that were used for the analysis of new T2 lesions. […]
For the statistical analysis, a general linear model was applied that used the smoothed gray matter segments as the dependent and group x time as the independent variable. […] Applying this model, the interaction between group and time was calculated using T-tests to investigate group differences in local gray matter changes between month 0 and month 12 (month 0 and month 24, respectively). […]

glatiramer acetate [Placebo + GA]
Proportion of pts with progression at 24 months % (95% CI) [1]: 15.8 (8.8-27.6) % | Proportion of pts with progression at 24 months % (95% CI) ([1]; listed as Placebo plus GA): 15.8% | EDSS scores over 24 months, slope ([1]; FIG. 6): −0.01 | EDSS change at 24 months (median) [1]: 0 | EDSS change at 24 months (median) ([1]; listed as Copaxone® plus placebo): no change | EDSS change at 24 months (median) ([1]; listed as Placebo plus GA): stable and unchanged | voxel-wise gray matter loss as compared to baseline [2]: significant localized gray matter loss | voxel-wise gray matter loss, between group comparison [2]: significantly more gray matter loss
